Data on three molecules can be found in ChEMBL document CHEMBL4622909, “PARP inhibitor cyanine dye conjugate with enhanced cytotoxic and antiproliferative activity in patient derived glioblastoma cell lines” (Bioorg Med Chem Lett, 2020).

Molecules are shown by their SMILES. Active and inactive are the calls of the source. No cut-off for these calls is given here.

For experiment [1], the system named is GBM. Description: Antiproliferative activity against human patient derived GBM cells assessed as reduction in cell proliferation up to 100 uM measured after 48 hrs by Edu incorporation assay. It counts as functional, cell-based.
Experiment [2] deals with GBM. Description: Ratio of EC50 for cytotoxicity against human patient derived GBM assessed as reduction in cell viability measured after 48 hrs by Hoechst staining based assay to EC50 for synergistic cytotoxicity against human patient derived GBM assessed as reduction in cell viability measured after 48 hrs in presence of temozolomide by Hoechst staining based assay. It counts as functional.

In experiment [3] the test system is GBM. Description: cells. The experiment is classed as functional, cell-based. The following applies: Homo sapiens, 48 h.
Description: Synergistic antiproliferative activity against human patient derived GBM cells assessed as reduction in cell proliferation measured after 48 hrs in presence of temozolomide by Edu incorporation assay
Experiment [4] has as its system GBM. The experiment is described as follows: Synergistic cytotoxicity against human patient derived GBM cells assessed as reduction in cell viability measured after 48 hrs in presence of temozolomide by Hoechst staining based assay. It counts as functional.
Experiment [5] concerns GBM. The experiment is described as follows: Cytotoxicity against human patient derived GBM cells assessed as reduction in cell viability measured after 48 hrs by Hoechst staining based assay. It counts as functional.
The test system of experiment [6] is GBM. The experiment is described as follows: Antiproliferative activity against human patient derived GBM cells assessed as reduction in cell proliferation measured after 48 hrs by Edu incorporation assay. The experiment is classed as functional, cell-based.
Experiment [7] deals with GBM. The experiment is described as follows: Potency index, ratio of rucaparib IC50 to test compound IC50 for human patient derived GBM cells assessed as reduction in cell viability measured after 48 hrs by Hoechst staining based assay. The experiment is classed as functional.
The test system of experiment [8] is GBM. Description: Potency index, ratio of IR-786 IC50 to test compound IC50 for human patient derived GBM cells assessed as reduction in cell viability measured after 48 hrs by Hoechst staining based assay. The experiment is classed as functional.
In experiment [9] the test system is GBM. Description: Potency index, ratio of IR-786 IC50 to test compound IC50 for synergistic cytotoxicity against human patient derived GBM cells assessed as reduction in cell viability measured after 48 hrs in presence of temozolomide by Hoechst staining based assay. The experiment is classed as functional.
Experiment [10] relates to GBM. The experiment is described as follows: Antiproliferative activity against human patient derived GBM cells assessed as reduction in cell proliferation measured after 48 hrs by Edu incorporation assay relative to compound alone. The experiment is classed as functional.

Regarding `Cn1nnc2c(C(N)=O)ncn2c1=O`, the outcome in the experiment on GBM [1] was inactive.
Take `CN1/C(=C/C=C2\CCCC(/C=C/C3=[N+](C)c4ccccc4C3(C)C)=C2N2CCN(c3ccc(-c4[nH]c5cc(F)cc6c5c4CCNC6=O)cc3)CC2)C(C)(C)c2ccccc21.[I-]`: in the experiment on GBM [2], the “Ratio EC50” value was 2. In addition, the IC50 (commonly the concentration that gives 50% inhibition) in the experiment on GBM [3] is 20 nM; in the experiment with GBM [6], 21 nM. In addition, the EC50 (commonly the concentration that produces a half-maximal response) in the experiment with GBM [4] amounted to 56 nM; with GBM [5] it was 128 nM. Moreover, the “Ratio IC50” value worked out at 780 with GBM [7], 13.5 with GBM [8], 7 with GBM [9] and 2 with GBM [10].
On to `CNCc1ccc(-c2[nH]c3cc(F)cc4c3c2CCNC4=O)cc1` [RUCAPARIB], for which the values for the IC50 in the experiment with GBM [3] and with GBM [6] were 2260 nM and 53400 nM, respectively. Besides, the EC50 in the experiment on GBM [4] and in the experiment on GBM [5] was > 100000 nM throughout. Moreover, the “Ratio IC50” value in the experiment with GBM [10] was 24.
